Experimental data from US5775339A, “Photodynamic therapy of pigment-related lesions” (Pharmacyclics, Inc., priority 1997, dated 1998).
Where “and” joins values, the source holds several entries; their conditions need not be identical. Equal values may be shown once. Entries after “also recorded” stand apart in the source; their conditions may differ.

Tests used:
[1] = design: species or system C57 mice; settings: mouse, in vivo
Excerpt: Tumor Temperature Measurements: Tumor temperature during laser irradiation was monitored with a 33 gauge hypodermic thermocouple probe (Omega Engineering, Stamford, Conn.) placed percutaneously at the base of the tumor.

[2] = Absorption of LuT2BET in 5% mannitol; format: physicochemical; settings: 732 nm
Method: LuT2BET: The synthesis and chemical analysis of lutetium texaphyrin (LuT2BET, texaphyrin A2 of Table 1 where M is lutetium) was provided in U.S. Pat. Nos. 5,252,720 and 5,457,183 and in PCT publication WO 95/10307. LuT2BET was dissolved in 5% mannitol at a 2 mM concentration. LuT2BET absorbs strongly in the far-red region of the electromagnetic spectrum, having a molar extinction coefficient of 23,000 M^-1 cm^-1 in this solution at 732 nm, the wavelength used for photoirradiation.

mammary carcinoma SMT-F = test: Radiolabeled [14C]-LuT2BET uptake in SMT-F bearing mice; format: in vivo; settings: 8.64 μmol/kg; for drug uptake (tumor): radiolabeled
Method: A dose of 8.64 μmol/kg LuT2BET produced drug uptake values of 5.1 μg/g, 4.7 μg/g, and 2.8 μg/g at 3 h, 5 h, and 24 h after injection, yielding tumor:muscle ratios of 8.45:1, 10:1 and 7:1, respectively.

[3] = Biodistribution of LuT2BET in B16 melanoma-bearing mice (fluorescence of tissue extracts and plasma); format: in vivo, C57 mice
Method: The present example provides results from a study of the biodistribution of lutetium texaphyrin in melanoma-bearing mice. The biodistribution of LuT2BET was analyzed in C57 mice bearing B16 melanoma at 3 h, 5 h, and 24 h after an intravenous administration of 10 or 20 μmol/kg.
(§1) Melanoma Cells: B16F10 melanotic melanoma murine cells were obtained from the University of California, San Francisco Cell Culture Facility. These cells are highly pigmented and metastatic in vivo. Cells were grown in Iscove's Modified Dulbeccos' Medium (Gibco, Grand Island, N.Y.) supplemented with 10% fetal bovine serum (JRH Biosciences, Woodland, Calif.) and penicillin/streptomycin (Sigma, St. Louis, Mo.).
(§2) Animals and Tumor Model: Inbred C57BL/6N female mice, (C57 mice) seven to eight weeks of age, were obtained from Simonsen Laboratories Inc. (Gilroy, Calif.). The right flanks of the mice were shaved and depiled the day prior to tumor inoculation. B16F10 cells (5×10^5 cells in 0.05 mL PBS) were injected subcutaneously into the right hind flanks. Tumor size, i.e., length (l), width (w), and height (h), was measured 3 times a week with a vernier caliper. Tumor volumes were calculated using the formula for a hemiellipsoid (Rockwell and Kallman, 1972): […]
Biodistribution studies were performed on tumors having surface diameters of between about 5.5-7 mm and a depth of 4-6 mm.
Tissue Extraction Procedure: LuT2BET was administered via tail-vein injection at 10 or 20 μmol/kg. Tissues and plasma were analyzed at 3, 5 or 24 h post administration of the photosensitizer. Blood was collected in tubes containing 5 mg of solid EDTA and erythrocytes were removed by centrifugation. Plasma samples (125 μL) were mixed with 10 mM TRITON X-100® and analyzed for texaphyrin content by fluorescence. […] Samples were then analyzed for lutetium texaphyrin content by fluorescence (excitation=450 nm, emission=700-800 nm). […] Sensitizer accumulation is expressed as μg drug/g tissue (wet weight) or per mL plasma.
Statistical analysis: Values are expressed as mean±SD. […]

melanoma = format: in vivo, human; settings: 0.5 μmol/kg i.v., 150 J/cm^2
Method: A patient with recurrent melanoma received a single dose of LuT2BET (0.5 μmol/kg; 2 mM in 5% mannitol/water; (a human equivalent of 10% of the mouse LD50)), administered intravenously, followed three hours later by photoirradiation by laser (732 nm light, 150 J/cm^2 at a power density of 75 mW/cm^2 using a LAMBDA PLUS® laser, Coherent, Palo Alto, Calif.). Four fields and a total of ten individual lesions were treated.

B16F10 melanoma = test: PDT response (tumor regrowth and survival) to LuT2BET and photoirradiation in melanoma-bearing mice; format: in vivo, C57 mice
Method: as §1, §2
Statistical analysis: Values are expressed as mean±SD. Values were compared using the unpaired Student's t-test. In the longevity analysis, Kaplan-Meier survival curves and log rank analysis for statistical significance were used. Statistical significance was assumed if P<0.05.
The present example provides results of a study wherein melanoma-bearing mice were administered LuT2BET and photoirradiated. […] PDT response was dependent upon drug dose, irradiation exposure and administration time.
PDT Protocol: C57 mice, bearing B16F10 melanoma as described in Example 1, were used for PDT experiments when the tumors reached surface diameters of between 4-6 mm and a depth of 2.5-3 mm. […] A 400 μm diameter fiberoptic cable coupled the laser to a microlens which produced uniform light intensity in the treatment field. Light fluences ranged between 150 and 600 J/cm^2, and the power density was set at 150 mW/cm^2 as measured with a power meter (Scientech, Boulder, Colo.). The mice were restrained with laboratory tape during photoirradiation.

B16 murine melanoma = B16 murine melanoma model; cited from earlier work
[4] = 10 μmol/kg, 300 J/cm^2, 5 h, n = 6
[5] = 10 μmol/kg, 500 J/cm^2, 5 h, n = 11
[6] = 20 μmol/kg, 150 J/cm^2, 24 h, n = 7
[7] = 20 μmol/kg, 300 J/cm^2, 24 h, n = 7

## CC(=O)[O-].CC(=O)[O-].CCc1c(CC)c2cc3nc(cnc4cc(OCCOCCOCCOC)c(OCCOCCOCCOC)cc4ncc4nc(cc1[n-]2)C(CCCO)=C4C)C(C)=C3CCCO.O.[Lu+3] [LuT2BET]
[1]
  increase in tumor temperature: No measurable increase in tumor temperature
[2]
  molar extinction coefficient: 23,000 M^-1 cm^-1
Mammary carcinoma SMT-F; 3 h
  tumor:muscle ratio: 8.45 :1
  drug uptake (tumor): 5.1 µg/g
Mammary carcinoma SMT-F; 5 h
  tumor:muscle ratio: 10 :1
  drug uptake (tumor): 4.7 µg/g
Mammary carcinoma SMT-F; 24 h
  tumor:muscle ratio: 7 :1
  drug uptake (tumor): 2.8 µg/g
[3]; 10 or 20 μmol/kg i.v., biodistribution study
  toxicity: no toxicity was observed
[3]; mouse, in vivo
  tumor levels compared with plasma, muscle and skin: higher than plasma, muscle and skin at all three time points
  uptake into B16 melanoma compared to SMT-F: increased uptake of lutetium texaphyrin into B16 melanoma was observed
melanoma; several days post-therapy
  response of remaining lesions: the remaining lesions showed no change
  response of several larger lesions: several of the larger lesions had decreased in size
  response of several smaller lesions: several of the smaller lesions had disappeared
melanoma; two months post-therapy
  response of lesions at two months: continued to show improvement
B16F10 melanoma; 10 μmol/kg, 150 J/cm^2, 3 h, n = 3
  MST (median survival time following PDT): 23 days
B16F10 melanoma; 10 μmol/kg, 150 J/cm^2, 3 h, n = 12
  Regrowth (time to reach ten times the original tumor volume): 15.0 ± 3.38 days
B16F10 melanoma; 10 μmol/kg, 300 J/cm^2, 5 h
  inhibition of tumor regrowth, in words: no detectable inhibition of tumor regrowth was seen
B16F10 melanoma; [4]
  MST (median survival time following PDT): 17 days
  Regrowth (time to reach ten times the original tumor volume): 8.5 ± 3.0 days and 8.5 days
B16F10 melanoma; 10 μmol/kg, 400, 500 and 600 J/cm^2, 5 h
  PDT effect, in words: significantly increased the PDT effect
B16F10 melanoma; 10 μmol/kg, 400 J/cm^2, 5 h, n = 7
  Regrowth (time to reach ten times the original tumor volume): 11.6 ± 2.1 days
B16F10 melanoma; 10 μmol/kg, 400 J/cm^2, 5 h, n = 8
  MST (median survival time following PDT): 18.5 days
B16F10 melanoma; [5]
  MST (median survival time following PDT): 23 days
  Regrowth (time to reach ten times the original tumor volume): 13.2 ± 3.5 days
B16F10 melanoma; 10 μmol/kg, 600 J/cm^2, 5 h, n = 5, P<0.0001
  Regrowth (time to reach ten times the original tumor volume): 15.6 ± 3.6 days and 15.6 days
B16F10 melanoma; 10 μmol/kg, 600 J/cm^2, 5 h, n = 6
  MST (median survival time following PDT): 28 days
B16F10 melanoma; 10 μmol/kg, at least about 500 J/cm^2
  survival time, in words: A significant increase in survival time
B16F10 melanoma; 10 μmol/kg, no light, n = 5
  Regrowth (time to reach ten times the original tumor volume): 7.8 ± 0.8 days
B16F10 melanoma; 10 μmol/kg, no light, n = 6
  MST (median survival time following PDT): 17.5 days
B16F10 melanoma; 20 μmol/kg, 150 J/cm^2, 5 h, n = 8
  Regrowth (time to reach ten times the original tumor volume): 10.6 ± 2.9 days
B16F10 melanoma; 20 μmol/kg, 150 J/cm^2, 5 h, n = 8, P=0.011
  MST (median survival time following PDT): 26 days
B16F10 melanoma; 20 μmol/kg, 150 J/cm^2, 24 h
  tumor regrowth, in words: did not yield any significant change in tumor regrowth
B16F10 melanoma; [6]
  MST (median survival time following PDT): 19 days
  Regrowth (time to reach ten times the original tumor volume): 6.7 ± 0.8 days
B16F10 melanoma; 20 μmol/kg, 150 and 300 J/cm^2, 5 h
  survival time, in words: A significant increase in survival time
B16F10 melanoma; 20 μmol/kg, 300 J/cm^2, 5 h, n = 13
  Regrowth (time to reach ten times the original tumor volume): 15.3 ± 2.6 days and 15.3 days
B16F10 melanoma; 20 μmol/kg, 300 J/cm^2, 5 h, n = 13, P=0.0002
  MST (median survival time following PDT): 27 days
B16F10 melanoma; [7]
  MST (median survival time following PDT): 20 days
  Regrowth (time to reach ten times the original tumor volume): 9.6 ± 2.1 days and 9.6 days
B16F10 melanoma; 20 μmol/kg, irradiated 5 h after administration, P<0.001
  tumor response, in words: A significant response
B16F10 melanoma; 20 μmol/kg, no light, n = 5
  MST (median survival time following PDT): 15 days
  Regrowth (time to reach ten times the original tumor volume): 8.2 ± 2.3 days
B16F10 melanoma; 20 μmol/kg, sensitizer alone
  tumor regrowth, in words: No significant difference in tumor regrowth
B16F10 melanoma; LuT2BET alone, 10 and 20 μmol/kg, vs controls
  survival time, in words: no apparent difference between light alone, LuT2BET alone, and the controls
B16F10 melanoma; PDT, 10 or 20 μmol/kg
  longevity / survival time overall, in words: increased longevity of the treated animals; also recorded: in some cases the longevity of the animals was doubled; also recorded: significantly increased the survival time of the melanoma-bearing mice
  retardation of tumor growth overall, in words: significant retardation of growth of the tumor; also recorded: efficacious in the retardation of the highly pigmented B16 melanoma in C57 mice

## silicon(IV)-naphthalocyanine
B16 murine melanoma
  tumor retardation not associated with thermal effects: modest
  tumor selectivity: no tumor selectivity
